# Source: US6470226B1 (priority 1997, dated 2002)
# System: voltage dependent calcium channels
# Format: cell-based, chick
Compound,effect on voltage dependent calcium channels (maximum current induced by depolarizing voltage steps),reversibility of effect (washout)
COC(=O)C1=C(C)NC(C)=C([N+](=O)[O-])C1c1ccccc1C(F)(F)F (stereo not drawn) [Bay-k 8644],stimulates L-type calcium channels,reversibly
N=C(N)NC(=O)c1nc(Cl)c(N)nc1N [amiloride],no effect on calcium ion channels,–
O=C1NC(=O)C(c2ccccc2)(c2ccccc2)N1 [phenytoin],no effect on calcium ion channels,–
w-conotoxin MVIIA,high affinity for N-type calcium channels,irreversible
